Results published in patent publication US6469001B1, “IL-5 inhibiting 6-azauracil derivatives” (priority 1998, dated 2002).

Tested on: IL-5 production in human blood
Assay: in vitro inhibition of IL-5 production in human blood (whole blood stimulated with phytohemagglutinin, IL-5 by ELISA)
Assay type: cell-based
Details: test dose 1×10^−6 M, phytohemagglutinin HA17 stimulation, 48 hours, read-out: % inh. (percentage inhibition of IL-5 production)
Procedure: in vitro Inhibition of IL-5 Production in Human Blood
Human Whole Blood Stimulation
Peripheral blood from healthy male donors was drawn into heparinized syringes (12.5 U heparin/ml). Blood samples were three-fold diluted in RMPI 1640 medium (Life Technologies, Belgium) supplemented with 2 mM L-glutamine, 100 U/ml penicillin and […] streptomycin, and […] fractions were distributed in 24-well multidisc plates. Blood samples were preincubated (60 minutes at 37° C.) in a humidified 6% CO2-atmosphere with 100 ml of drug solvent (final concentration 0.02% dimethylsulfoxide in RPMI 1640) or with 100 ml of an appropriate dose of test compound before being stimulated by the addition of […] of phytohemagglutinin HA17 (Murex, UK) at a final concentration of […]. After 48 hours, cell-free supernatant fluids were collected by centrifugation and stored at −70° C. until tested for the presence of IL-5.
IL-5 measurements were conducted as described in Van Wauwe et al. (1996, Inflamm Res, 45, 357-363) on page 358 using ELISA.
Table 1 lists the percentage inhibition of IL-5 production (column “% inh”) at a test dose of 1×10^−6 M for the compounds of the present invention.

SMILES | inhibition at 1 µM
CS(=O)(=O)c1ccc(C2(C(N)=S)CCc3cc(-n4ncc(=O)[nH]c4=O)ccc32)cc1 (centres unmarked) [Compound 6] | 6%
Cc1sc(C2(c3ccc(S(C)(=O)=O)cc3)CCc3cc(-n4ncc(=O)[nH]c4=O)ccc32)nc1-c1ccccc1 (centres unmarked) [Compound 7] | 39%
